For experiment [1], the system named is Mycobacterium tuberculosis H37Rv. Description: Inhibition of Mycobacterium tuberculosis H37Rv chorismate mutase expressed in Escherichia coli BL21 (DE3) assessed as conversion of chorismate to prephenate at 50 uM after 5 mins by spectrophotometry.
Experiment [2] has the same test system. Description: (§1) Inhibition of Mycobacterium tuberculosis H37Rv chorismate mutase expressed in Escherichia coli BL21 (DE3) assessed as conversion of chorismate to prephenate after 5 mins by spectrophotometry.
Experiment [3] can be described thus: as §1.

pIC50: −log10 of the molar value.

The inhibition is the relative decrease from the control value, in per cent. With `N#CC1=C(N)Oc2c(ccc3ccccc23)C1c1cccc(C#CC2(O)CCCCC2)c1` (centres undefined), the inhibition in experiment [1] is 28%. Consider `CCCCC#Cc1ccccc1C1C(C#N)=C(N)Oc2c1ccc1ccccc21` (centres undefined), for which the inhibition in experiment [1] worked out at 57%.

With `N#CC1=C(N)Oc2c(ccc3ccccc23)C1c1cccc(C#CCCCO)c1` (centres undefined), in experiment [1], the inhibition is 32%. For `N#CC1=C(N)Oc2c(ccc3ccccc23)C1c1ccccc1C#CC1(O)CCCCC1` (centres undefined), the inhibition in experiment [1] was 24%. Same read-out and setting: the value for `CCCCCCCCC#Cc1ccccc1C1C(C#N)=C(N)Oc2c1ccc1ccccc21` (centres undefined) was 50%. Same read-out and setting: the value for `CCCCCCC#Cc1ccccc1C1C(C#N)=C(N)Oc2c1ccc1ccccc21` (centres undefined) was 55%. For `N#CC1=C(N)Oc2ccc3ccccc3c2C1c1cccc(C#CCCO)c1` (centres undefined), the inhibition in experiment [1] was determined as 69%. The term pIC50 denotes −log10 of the IC50, conventionally taken in molar units. Take `N#CC1=C(N)Oc2ccc3ccccc3c2C1c1cccc(C#CCCCO)c1` (centres undefined): the inhibition result was “Dose-dependent effect” in experiment [2] and 70% in experiment [1]. Further, the pIC50 in experiment [3] was 4.81. As for `CC(C)(C)OC(=O)/C=C/c1cccc(C2C(C#N)=C(N)Oc3ccc4ccccc4c32)c1` (centres undefined), the inhibition in experiment [1] was 64%. The same measure, in the same setting: under `COC(=O)/C=C/c1cccc(C2C(C#N)=C(N)Oc3ccc4ccccc4c32)c1` (centres undefined) stands 33%; under `CCOC(=O)/C=C/c1cccc(C2C(C#N)=C(N)Oc3ccc4ccccc4c32)c1` (centres undefined), 30%. In the case of `CC(=O)/C=C/c1cccc(C2C(C#N)=C(N)Oc3ccc4ccccc4c32)c1` (centres undefined), in experiment [1], the inhibition stood at 10%.

(Values after ChEMBL document CHEMBL1914370, “A Pd-mediated new strategy to functionalized 2-aminochromenes: their in vitro evaluation as potential anti tuberculosis agents” (Bioorg Med Chem Lett, 2011).)
